{
  "source": "patent US11371020B2",
  "about": "“Uses of epithelial-to-mesenchymal inhibitors in generating pacemaker cells” (Emory University, priority 2016, dated 2022)",
  "key": {"[1]": {"test_system": "TBX18-induced pacemaker cells (TBX18-iPCs)", "experiment": "Electrode-to-electrode impedance measurement of migration of TBX18-iPCs", "assay_type": "cell-based, rat", "conditions": "A83-01 0.5 microM; NRVM transduced with adenoviral human TBX18", "method": "TBX18-iPCs were created by transducing freshly isolated neonatal rat ventricular myocytes (NRVM) with an adenoviral vector expressing human TBX18. TBX18-iPC were cultured with an inhibitor of EMT, A83-01 (0.5 microM).\n(§1) Experiments were performed to test whether i) TBX18-induced pacemaker cells (TBX18-iPCs) migrate, and ii) inhibition of EMT in TBX18-iPCs may stop the migration, thereby enhancing its pacing function. (See FIGS. 1-8). TBX18-iPCs were created by transducing freshly-isolated neonatal rat ventricular myocytes (NRVM) with an adenoviral vector expressing human TBX18. TBX18-iPC were cultured with an inhibitor of EMT, A83-01. […] TBX18-iPCs beat in synchrony upon EMT inhibition, and their automaticity persists over long-term."}, "[2]": {"test_system": "EMT genes", "experiment": "EMT-related gene expression in TBX18-induced pacemaker cells", "assay_type": "cell-based, rat", "conditions": "TBX18-iPCs cultured with A83-01", "method": "as §1"}, "[3]": {"test_system": "TBX18-iPCs", "experiment": "Cx43 localisation, gap junctional coupling and Hcn4 expression in TBX18-iPCs", "assay_type": "cell-based, rat", "method": "as §1\nTBX18 mediates both automaticity and EMT in iPCs."}, "[4]": {"test_system": "TBX18-induced pacemaker cells (TBX18-iPCs)", "experiment": "Beating, field potential and Ca2+ transient recording of TBX18-iPCs", "assay_type": "cell-based, rat", "method": "as §1"}, "[5]": {"target": "T1, ALK-5 (Homo sapiens, UniProt P36897)", "T1 sequence (P36897 34-503)": "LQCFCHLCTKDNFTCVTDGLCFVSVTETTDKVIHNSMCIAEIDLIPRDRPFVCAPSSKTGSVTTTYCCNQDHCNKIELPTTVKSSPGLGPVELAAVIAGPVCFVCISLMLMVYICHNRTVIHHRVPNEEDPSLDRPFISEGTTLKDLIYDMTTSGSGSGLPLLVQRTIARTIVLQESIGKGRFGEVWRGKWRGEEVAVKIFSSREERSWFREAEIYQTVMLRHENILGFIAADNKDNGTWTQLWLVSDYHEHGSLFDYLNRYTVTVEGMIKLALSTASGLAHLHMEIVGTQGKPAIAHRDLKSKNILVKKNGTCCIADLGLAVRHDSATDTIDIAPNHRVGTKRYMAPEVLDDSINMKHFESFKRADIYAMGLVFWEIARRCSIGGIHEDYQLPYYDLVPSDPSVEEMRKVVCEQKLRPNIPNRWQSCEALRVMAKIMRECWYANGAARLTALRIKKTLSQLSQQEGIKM", "conditions": "cited from earlier work"}},
  "note": "Entries after “also recorded” stand apart in the source; their conditions may differ.",
  "data": [
    {"smiles": "Cc1cccc(-c2nn(C(=S)Nc3ccccc3)cc2-c2ccnc3ccccc23)n1", "note": "[A83-01, 3-(6-methyl-2-pyridinyl)-N-phenyl-4-(4-quinolinyl)-1H-pyrazole-1-carbothioamide]", "values": [
      {"measurement": "migration of TBX18-iPCs", "setting": "[1]", "value": "remain stationary; also recorded: migratory behavior is deleted"},
      {"measurement": "EMT gene expression in the iPCs", "setting": "[2]", "value": "down-regulates EMT genes"},
      {"measurement": "gap junctional coupling of EMT-inhibited TBX18-iPCs", "setting": "[3]", "value": "long-term gap junctional coupling"},
      {"measurement": "Hcn4 expression in TBX18-iPCs", "setting": "[3]; upon EMT inhibition", "value": "enhances Hcn4 expression"},
      {"measurement": "localisation of nuclear-bound Cx43 proteins in TBX18-iPCs", "setting": "[3]; upon EMT inhibition", "value": "translocated to the sarcolemma"},
      {"measurement": "persistence of automaticity of iPMs", "setting": "[4]; in A83-01 versus without it", "value": "persists much longer"},
      {"measurement": "synchrony of pacing", "setting": "[4]; in the presence of A83-01", "value": "synchronous and rhythmic pacing; also recorded: pace in unity"},
      {"measurement": "beating rate of TBX18-iPCs", "setting": "[4]; upon EMT inhibition", "value": "beating rate increases"},
      {"measurement": "contraction and relaxation speed of TBX18-iPCs", "setting": "[4]; upon EMT inhibition", "value": "contract and relax faster"},
      {"measurement": "Smad signaling and epithelial-to-mesenchymal transition by transforming growth factor-beta", "setting": "[5]", "value": "inhibits"}
    ]}
  ]
}
